Data reported in patent US9029080B2, “Screening assay for insecticides” (priority 2008, dated 2015).

Target: T1, ShaI/KChIP (Drosophila melanogaster, UniProt P17971)
T1 construct: expressed in transfected cells; subclone 18-13-20
T1 sequence (P17971 with tags, fused parts or gaps isoform P17971-1): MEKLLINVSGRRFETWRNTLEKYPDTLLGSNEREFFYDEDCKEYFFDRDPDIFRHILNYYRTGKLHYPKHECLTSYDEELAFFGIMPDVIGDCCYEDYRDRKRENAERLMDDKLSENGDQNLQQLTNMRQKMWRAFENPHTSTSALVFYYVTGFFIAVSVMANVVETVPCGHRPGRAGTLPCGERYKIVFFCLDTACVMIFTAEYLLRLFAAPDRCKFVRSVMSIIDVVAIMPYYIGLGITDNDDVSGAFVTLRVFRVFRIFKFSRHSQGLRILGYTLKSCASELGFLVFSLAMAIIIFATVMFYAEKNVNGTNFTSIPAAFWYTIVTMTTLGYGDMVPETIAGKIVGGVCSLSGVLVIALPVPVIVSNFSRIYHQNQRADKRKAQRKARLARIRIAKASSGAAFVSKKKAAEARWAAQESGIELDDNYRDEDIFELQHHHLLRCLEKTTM
Experiment: Whole-cell patch clamp on ShaI/KChIP 20 cells
Type: cell-based
Conditions: 100 uM [final], incubation five minutes
Method: Chinese hamster ovary (CHO) cells transfected with (a) a Drosophila ShaI gene (b) a Drosophila ShaI pore mutant gene and (c) a Drosophila ShaI+KChIP gene, and were used for all measurements. Cells were plated in 35 mm Petri dishes 2-6 hours before the experiment.
Data were acquired and analyzed using pClamp software (version 9.0.1.16). The whole-cell configuration of the patch-clamp technique was used to voltage clamp cells at room temperature (22-25° C.). Pipettes were pulled from borosilicate glass capillaries (#8250, Garner Glass, Claremont, Calif.) using a DMZ Universal Puller (Zeitz, Munich, Germany) and had resistances of 1-2 MOhm when filled with pipette solution and measured in bath solution. The liquid junction potential between bath and pipette solution was always compensated before the formation of a gigaohm seal.
Membrane current was measured under whole-cell clamp, sampled at 2 kHz and filtered at 1 kHz by an Axoclamp 200B (Axon Instruments). […]
To study ShaI currents on CHO cells, cells were held at −70 mV and a family of 500 ms test voltage pulses was applied starting from −70 to +70 mV, or +100 mV, in 10 mV increments. The amplitude, as measured for the current-voltage relationship, was defined as the maximal current at a given membrane potential. […]
FIG. 13: ShaI/KChIP inhibited by arachidonic acid. […] Pre- and post-compound currents were measured under whole-cell clamp. […]

CCCCC/C=C\C/C=C\C/C=C\C/C=C\CCCC(=O)O [arachidonic acid]
inhibition of total ShaI/KChIP current: Complete inhibition
